This is an account of results in patent publication US20090047365A1, “Novel Concomitant Use of Sulfonamide Compound with Anti-Cancer Agent” (Eisai R & D Management Co., Ltd., priority 2005, published 2009).

One test deals with HCT116 cells. Nature of the test: DNA microarray analysis (Example 8), correlation coefficients and hierarchical cluster analysis. The test is classed as cell-based, human. Particulars: 24 hours treatment at twice the 50% growth inhibitory concentration, similarity among the compounds named together. As for the experimental part:
HCT116 cells were cultured in an RPMI-1640 medium supplemented with 10% fetal bovine serum, 100 units/ml penicillin and 100 μg/ml streptomycin. The following cultivation and compound treatment were carried out in an incubator at 5% CO2 and 37° C. HCT116 cells were seeded in 10 cm-diameter cell culture dishes at 2.0×10^6 cells/dish, cultured for 24 hours and subjected to the following compound treatment.
In this example, changes in the gene expression of HCT116 cells upon treatments with 12 compounds, i.e., E7820 (0.16 μM), E7070 (0.26 μM), LY186641 (59 μM), LY295501 (24 μM), LY-573636 (9.6 μM), CQS (4.0 μM), MST16 (100 μM), etoposide (3.6 μM), ethoxzolamide (410 μM), capsaicin (280 μM), trichostatin A (0.16 μM) and kenpaullone (7.1 μM) were examined.
The concentration of each compound used for the treatment was set to twice the 50% growth inhibitory concentration of each compound to the HCT116 cells (based on three days of antiproliferatrive activity using MTT). The cells were collected 24 hours after the treatment at the concentration indicated in parentheses following each compound name above. Similarly, cells cultured for 24 hours without the addition of any compound were also collected.
Total RNA extraction from the collected cells was performed using TRIZOL reagent (Invitrogen) according to the attached instruction.
Gene expression analysis using a DNA microarray was carried out in the same manner as “(2) Analysis of gene expression using DNA microarray” in Example 7.
This example was conducted for each sample in duplicate (for the convenience of the experiment, samples were given branch numbers like control-1, control-2, E7070-1, E7070-2 and so on for distinction). Then, GeneChip (Affymetrix) system (Human Focus array) was used for analyzing changes in the gene expression induced by each compound.
Twenty-six “.cel” files obtained in this example (13 samples (a control+12 compounds)×2) were subjected to RMA method (robust multi-array average method (Biostatistics (2003), 4, 249-264)) for normal distribution at probe level, and then the logarithm value of the signal intensity at gene level was calculated. Next, the logarithm value of the signal intensity of the untreated group (control-1) was subtracted from the logarithm value of the signal intensity of the compound-treated group for each gene to obtain the logarithm value of the signal ratio of the compound-treated group to control-1. Then, cosine correlation coefficients were calculated as correlation coefficients between the experiments (FIG. 5). Based on these correlation coefficients, hierarchical cluster analysis was performed according to UPGMA method (Unweighted Pair Group Method with Arithmetic mean method) (FIG. 6). Control-2 was also subjected to similar calculation (FIGS. 7 and 8). The softwares used were R 2.0.1 (http://www.r-project.org/) and affy package 1.5.8 (http://www.bioconductor.org).

In test [1] the test system is Human umbilical vein endothelial cells. Put plainly: vascular endothelial cell proliferation assay (in vitro), combinational use of E7820 and anti-cancer drug. The test is classed as cell-based. As for the experimental part: These diluted solutions were added to the cultured wells for 100 μl/well for further cultivation.
Test [2] concerns Human umbilical vein endothelial cell (HUVEC). Put plainly: vascular endothelial cell lumen formation assay (in vitro), combinational use of E7820 and anti-cancer drug. The test is classed as cell-based. On the procedure: Four-hundred μl of type I collagen gel (Nitta Gelatin) was dispensed in a 24-well plate (FALCON) and left in a CO2 incubator at 37° C. for 40 minute for gelatinization. A serum-free medium (Human endothelial-SFM Basal Growth Medium, Invitrogen) containing 20 ng/ml EGF (GIBCO BRL) was prepared. Two-hundred μl of this solution was dispensed in the wells containing type I collagen gel. Human umbilical vein endothelial cell (HUVEC) line was suspended in a serum-free medium (Human endothelial-SFM Basal Growth Medium, GIBCO BRL) to prepare 5×10^5 cells/ml cell suspension. Two-hundred μl of this suspension was seeded on the wells containing the type I collagen gel and the serum-free medium and cultured overnight.
On the following day, the wells were overlaid with 400 μl of type I collagen gel and left in a CO2 incubator at 37° C. for 3 hours for gelatinization. Then, the serum-free media (containing 10 ng/ml EGF and 20 ng/ml VEGF (Genzyme Techne Corp.)) containing E7820 alone, containing an anti-cancer drug alone and containing both E7820 and the anti-cancer drug for combinational use were added for 1.5 ml each and further cultured in a CO2 incubator at 37° C. for 3 days.
After the cultivation, 400 μl of 3.3 mg/ml MTT (SIGMA) solution was dispensed in the wells and reacted in a CO2 incubator at 37° C. for 3 hours for the cells to develop color.

The mark [3] stands for this setting: combined with E7820, fa 0.9, HUVEC proliferation.
[4] abbreviates: combined with E7820, fa 0.95, HUVEC proliferation.
Where [5] appears, read: combined with E7820, fa 0.8, HUVEC proliferation.
The mark [6] stands for this setting: combined with E7820, fa 0.6, HUVEC proliferation.
Setting [7] is: combined with E7820, fa 0.7, HUVEC proliferation.

Values joined by “and” are separate entries in the source; they are usually repeats but may differ in a detail not shown here. Equal values may be shown once. Where a name gives a salt, the structure may show the parent alone. Read-outs that look alike come from different tables or passages of the source.

On to `Nc1ccc(S(=O)(=O)Nc2cnc3c(Cl)cccc3n2)cc1` [CQS, 2-sulfanylamide-5-chloroquinoxaline], for which the “changes in gene expression (correlation coefficients, hierarchical cluster analysis)” value (from here on “changes in gene expression”) with HCT116 cells is given as “very similar genetic alterations”.
`CN(Cc1cnc2nc(N)nc(N)c2n1)c1ccc(C(=O)N[C@@H](CCC(=O)O)C(=O)O)cc1` [Methotrexate, N-{4-[N-(2,4-diaminopteridin-6-ylmethyl)-N-methylamino]benzoyl}-L-glutamic acid]: the Combined effect entry in test [1] (setting [3]) and in test [1] (setting [4]) was “Synergistic” in each case.
For the compound `Nc1ccn([C@@H]2O[C@H](CO)[C@@H](O)C2(F)F)c(=O)n1` [Gemcitabine, 2′-deoxy-2′,2′-difluoro-cytidine hydrochloride], the Combined effect entry in test [1] (setting [5]) is given as “Synergistic”; in test [1] (setting [3]) it was “Synergistic”; in test [2] (combined with E7820, fa 0.3), “Synergistic”; in test [2] (combined with E7820, fa 0.4) it was “Synergistic”; in test [2] (combined with E7820, fa 0.5) it was “Synergistic”; in test [2] (combined with E7820, fa 0.6) it was “Synergistic”. The Combined effect entry is “Synergistic” in test [2] (combined with E7820, fa 0.7); “Synergistic” in test [2] (combined with E7820, fa 0.8); “Synergistic” in test [2] (combined with E7820, fa 0.9); “Synergistic” in test [2] (combined with E7820, fa 0.95).
Consider “10-[(3-amino-2,3,6-trideoxy-α-L-lyxo-hexopyranosyl)oxy]-7,8,9,10-tetrahydro-6,8,11-tri hydroxy-8-(hydroxyacetyl)-1-methoxy-(8S-cis)-5,12-naphthacenedione [Doxorubicin]”, for which the Combined effect entry in test [1] (setting [6]) is listed as “Synergistic”; in test [1] (setting [7]), “Synergistic”; in test [1] (setting [5]) it was “Synergistic”; in test [1] (setting [3]) it was “Synergistic”; in test [1] (setting [4]), “Synergistic”; in test [2] (combined with E7820, fa 0.2) it was “Synergistic”. Further, the Combined effect result in test [2] (combined with E7820, fa 0.3) is “Synergistic”; in test [2] (combined with E7820, fa 0.4) it was “Synergistic”; in test [2] (combined with E7820, fa 0.5) it was “Synergistic”; in test [2] (combined with E7820, fa 0.6), “Synergistic”; in test [2] (combined with E7820, fa 0.7), “Synergistic”; in test [2] (combined with E7820, fa 0.8), “Synergistic”. The Combined effect entry in test [2] (combined with E7820, fa 0.9) was “Synergistic”; in test [2] (combined with E7820, fa 0.95) it was “Synergistic”.
On to `O=C(Nc1ccc(Cl)c(Cl)c1)NS(=O)(=O)c1ccc2c(c1)CCO2` [LY295501, N-[[(3,4-dichlorophenyl)amino]carbonyl]-2,3-dihydrobenzofuran-5-sulfonamide], for which, in the test with HCT116 cells, the “changes in gene expression” value is listed as “very similar genetic alterations”.
Turning to `CCc1c2c(nc3ccc(O)cc13)-c1cc3c(c(=O)n1C2)COC(=O)[C@]3(O)CC` [SN38, 7-ethyl-10-hydro-(20)S-Camptothecin], the “Combination index (CI)” value in test [1] was 0.6 and 0.5 and 0.8. The Combined effect result is given as “Synergistic” in test [1] (setting [6]); “Synergistic” in test [1] (setting [7]); “Synergistic” in test [1] (setting [5]); “Synergistic” in test [1] (setting [3]); “Synergistic” in test [1] (setting [4]); “Synergistic” in test [2] (combined with E7820, fa 0.3). The Combined effect entry in test [2] (combined with E7820, fa 0.4) was “Synergistic”; in test [2] (combined with E7820, fa 0.5) it was “Synergistic”; in test [2] (combined with E7820, fa 0.6), “Synergistic”; in test [2] (combined with E7820, fa 0.7), “Synergistic”; in test [2] (combined with E7820, fa 0.8), “Synergistic”; in test [2] (combined with E7820, fa 0.9), “Synergistic”. Further, the Combined effect result in test [2] (combined with E7820, fa 0.95) is on record as “Synergistic”.
Regarding `O=C(NS(=O)(=O)c1ccc(Br)s1)c1ccc(Cl)cc1Cl` [LY573636, N-(2,4-dichlorobenzoyl)-5-bromothiophene-2-sulfonamide], in the test with HCT116 cells, the “changes in gene expression” value was “very similar genetic alterations”.
Take `O=C(Nc1ccc(Cl)cc1)NS(=O)(=O)c1ccc2c(c1)CCC2` [LY186641, N-[[(4-chlorophenyl)amino]carbonyl]-2,3-dihydro-1H-indene-5-sulfonamide]: the “changes in gene expression” value with HCT116 cells was “very similar genetic alterations”.
In the case of `N.N.[Cl][Pt][Cl]` [Cisplatin, cis-diamminedichloroplatinum II], the Combined effect result in test [1] (setting [6]) is recorded as “Synergistic”; in test [1] (setting [7]) it was “Synergistic”; in test [1] (setting [5]), “Synergistic”; in test [1] (setting [3]) it was “Synergistic”; in test [1] (setting [4]), “Synergistic”; in test [2] (combined with E7820, fa 0.05), “Synergistic”. Also, the Combined effect result in test [2] (combined with E7820, fa 0.1) is “Synergistic”; in test [2] (combined with E7820, fa 0.2), “Synergistic”; in test [2] (combined with E7820, fa 0.3), “Synergistic”; in test [2] (combined with E7820, fa 0.4) it was “Synergistic”; in test [2] (combined with E7820, fa 0.5), “Synergistic”; in test [2] (combined with E7820, fa 0.6), “Synergistic”. For the same compound, the Combined effect entry in test [2] (combined with E7820, fa 0.7) was “Synergistic”; in test [2] (combined with E7820, fa 0.8), “Synergistic”; in test [2] (combined with E7820, fa 0.9) it was “Synergistic”; in test [2] (combined with E7820, fa 0.95) it was “Synergistic”. Besides, the “Combination index (CI)” value in test [1] (setting [7]) is reported as 0.7; in test [1] (setting [5]), 0.5; in test [1] (setting [3]) it was 0.4; in test [1] (setting [4]), 0.3; in test [1] (combined with E7820, fractional inhibition (fa) 0.6, HUVEC proliferation) it was 0.9; in test [2] (combined with E7820, fa 0.05), 0.7. The “Combination index (CI)” value in test [2] (combined with E7820, fa 0.1) was 0.6; in test [2] (combined with E7820, fa 0.2), 0.6; in test [2] (combined with E7820, fa 0.3), 0.6; in test [2] (combined with E7820, fa 0.4), 0.5; in test [2] (combined with E7820, fa 0.5) it was 0.5; in test [2] (combined with E7820, fa 0.6), 0.5. Further, the “Combination index (CI)” value worked out at 0.5 in test [2] (combined with E7820, fa 0.7); 0.5 in test [2] (combined with E7820, fa 0.8); 0.5 in test [2] (combined with E7820, fa 0.9); 0.4 in test [2] (combined with E7820, fa 0.95).
In the case of `CC(=O)O[C@H]1C(=O)[C@@]2(C)[C@H]([C@H](OC(=O)c3ccccc3)[C@]3(O)C[C@H](OC(=O)[C@H](O)[C@@H](NC(=O)c4ccccc4)c4ccccc4)C(C)=C1C3(C)C)[C@]1(OC(C)=O)CO[C@@H]1C[C@@H]2O` [Paclitaxel, (−)-(1S, 2R, 3S, 4S, 5R, 7S, 8S, 10R, 13S)-4,10-diacetoxy-2-benzoyloxy-5,20-epoxy, 1,7-dihydroxy-9-oxotax-11-en-13-yl (2S,3S)-3-benzoylamino-2-hydroxy-3-phenylpropionate], the Combined effect entry in test [1] (setting [7]) is listed as “Synergistic”; in test [1] (setting [5]), “Synergistic”; in test [1] (setting [3]) it was “Synergistic”; in test [1] (setting [4]), “Synergistic”; in test [2] (combined with E7820, fa 0.7) it was “Synergistic”; in test [2] (combined with E7820, fa 0.8), “Synergistic”. The Combined effect entry is listed as “Synergistic” in test [2] (combined with E7820, fa 0.9) and “Synergistic” in test [2] (combined with E7820, fa 0.95).
